Results: article PMC9415509, “Pro-Apoptotic Antitumoral Effect of Novel Acridine-Core Naphthoquinone Compounds against Oral Squamous Cell Carcinoma” (Molecules, 2022)

Tested on: SCC25 OSCC cell line
Experiment: MTT cell viability assay (cytotoxicity), SCC25
Type: cell-based, human
Method: Cells and reagents. Human SCC-4, SCC-9, and SCC-25 cells, derived from a human oral tongue SCC (squamous cell carcinoma) were obtained from the ATCC (CRL-1624, CRL-1629, and CRL-1628, respectively) and maintained in 1:1 DMEM/F12 (Dulbecco’s modified Eagle medium and Ham’s F12 medium; Gibco (Thermo Fisher, Waltham, MA, USA)) supplemented with 10% (v/v) FBS (fetal bovine serum; Invitrogen, Thermo Fisher, Waltham, MA, USA) and 400 ng/mL hydrocortisone (Sigma-Aldrich Co., St. Louis, MO, USA). Primary normal human gingival fibroblasts were obtained from the ATCC (PCS-201-018) and maintained in DMEM supplemented with 10% (v/v) FBS and were used in a maximum of six passages. The cells were grown in a humidified environment containing 5% CO2 at 37 °C. […] Carboplatin stock was prepared in water (Fauldcarbo®; LibbsFarmacêutica, São Paulo, SP, Brazil) and was used as a standard anticancer compound.
Cell viability assay (cytotoxicity) and compound stability assay. The viability of SCC cell lines and primary human fibroblast cells was evaluated using the MTT assay as in [48]. Briefly, the cells were grown in triplicates in 96-well plates (5 × 10^3 cells/well) until confluence. Then, the medium was removed, fresh medium was added, and the cells were returned to the incubator in the presence of different compounds. DMSO at the same concentrations was used as a 100% cell viability control. After 48 h, the cells were incubated with 5 mg/mL MTT reagent (3-(4,5-dimethyl-2-thiazolyl)-2,5-diphenyl-2-H-tetrazolium bromide) (Sigma-Aldrich Co., St. Louis, MO, USA) for 3.5 h. After that, formazan crystals were dissolved in MTT solvent solution (DMSO/methanol 1:1 v/v) and the absorbance at 560 nm was evaluated using an EPOCH microplate spectrophotometer (BioTek Instruments, Winooski, VT, USA) with the background absorbance at 670 nm subtracted.
Statistical analysis, IC50 calculation. The data are presented as means ±\SD. IC50 values for the MTT assays were obtained by nonlinear regression using the […] 5.0 program (Intuitive Software for Science, San Diego, CA, USA) from at least three independent experiments. A dose–response (inhibitor) vs. response curve using the least squares method was used to determine the IC50, SD, and R^2 of the data. The selectivity index was calculated as SI = IC50 of the compound in normal oral fibroblast cells/IC50 of the same compound for each oral cancer cell line (SCC-4, SCC-9, and SCC-25) and the mean was calculated when indicated.

For `CC1(C)CC(=O)C2=C(C1)NC1=C(C(=O)c3ccccc3C1=O)C2c1ccc(Cl)cc1Cl` (centres unmarked) [4e, 12-(2,4-dichlorophenyl)-3,3-dimethyl-3,4-dihydrobenzo[b]acridine-1,6,11(2H,5H,12H)-trione], which IC50 (Homo sapiens, SCC-25, SCC25, 48 h, MTT, read-out: Oral Tumor Cells SCC25 IC50) is on record?
Its IC50 is 21.5 µM.

And the “SCC25 S.I.” value (IC50 normal oral fibroblasts / IC50 SCC25)?
The value was 4.1.
